{"source": "patent US20150209404A1", "about": "“CELLULAR BLOOD MARKERS FOR EARLY DIAGNOSIS OF ALS AND FOR ALS PROGRESSION” (YEDA RESEARCH AND DEVELOPMENT CO. LTD., priority 2010, published 2015)", "origin": "cited, not measured here", "details": "ALS patients; Copaxone given daily; both drugs effective in treating MS"}
{"substance": "glatiramer acetate [Copaxone]", "values": [{"measurement": "outcome of treatment in ALS", "result": "failed and were even detrimental"}]}
